In PubChem BioAssay AID210 (DTP/NCI, 2004):
Values joined by “and” are separate entries in the source; they are usually repeats but may differ in a detail not shown here. Equal entries are not always repeated. Inconclusive results and toxic doses are left out.

Tested on: CD2F1 mice, ip Colon 26 adenocarcinoma, median survival T/C
Experiment: NCI In Vivo Anticancer Drug Screen. Data for tumor model Colon 26 Adenocarcinoma (intraperitoneal) in CD2F1 (CDF1) mice
Conditions: endpoint: median survival time, higher = longer survival
Description: The antitumor activity of compounds was measured in mice bearing transplantable tumors. Survival or tumor size were measured and the results are expressed as the measurement made in the treated group (T) divided by the measurement made in the vehicle treated control group (C). The tumor model used in this assay is Colon 26 Adenocarcinoma (intraperitoneal) in CD2F1 (CDF1) mice

[1] = dose: 8.0 mg/kg/injection, schedule: Q01DX009 (ip), vehicle: acid diluted with saline
[2] = dose: 16.0 mg/kg/injection, schedule: Q01DX009 (ip), vehicle: acid diluted with saline

**Q.** Which T/C (dose: 3.12 mg/kg/injection, schedule: Q04DX003 (ip), vehicle: Klucel (hydroxypropylcellulose) (HPC)) does the source give for O=C(CCCN1CCC(O)(c2cccc(C(F)(F)F)c2)CC1)c1ccc(F)cc1 here?
**A.** 94 % of control

**Q.** And the T/C (dose: 6.25 mg/kg/injection, schedule: Q04DX003 (ip), vehicle: Klucel (hydroxypropylcellulose) (HPC))?
**A.** 95 % of control

**Q.** What about the T/C (dose: 12.5 mg/kg/injection, schedule: Q04DX003 (ip), vehicle: Klucel (hydroxypropylcellulose) (HPC)) of the same molecule?
**A.** 99 % of control

**Q.** What about the T/C (dose: 25.0 mg/kg/injection, schedule: Q04DX003 (ip), vehicle: Klucel (hydroxypropylcellulose) (HPC)) of the same molecule?
**A.** 97 % of control

**Q.** What about the T/C (dose: 50.0 mg/kg/injection, schedule: Q04DX003 (ip), vehicle: Klucel (hydroxypropylcellulose) (HPC)) of the same molecule?
**A.** 105 % of control

**Q.** With CN(C)CCCNc1cccc2c1C(=O)c1c(NCCCN(C)C)cccc1C2=O as the molecule, how does the T/C (dose: 4.0 mg/kg/injection, schedule: Q01DX009 (ip), vehicle: saline) read?
**A.** 111 % of control

**Q.** And the T/C (dose: 8.0 mg/kg/injection, schedule: Q01DX009 (ip), vehicle: saline)?
**A.** 97 % of control

**Q.** And the T/C (dose: 16.0 mg/kg/injection, schedule: Q01DX009 (ip), vehicle: saline)?
**A.** 95 % of control

**Q.** What about the T/C (dose: 32.0 mg/kg/injection, schedule: Q01DX009 (ip), vehicle: saline) of the same molecule?
**A.** 89 % of control

**Q.** And the T/C (dose: 64.0 mg/kg/injection, schedule: Q01DX009 (ip), vehicle: saline)?
**A.** 87 % of control

**Q.** What does the source list for O=P1(N(CCCl)CCCl)NCCCO1 (stereo not drawn)?
**A.** T/C (dose: 50.0 mg/kg/injection, schedule: Q03DX002 (ip), vehicle: saline): 106 % of control; T/C (dose: 51.0 mg/kg/injection, schedule: Q07DX003 (ip), vehicle: saline): 119 % of control; T/C (dose: 100.0 mg/kg/injection, schedule: Q03DX002 (ip), vehicle: saline): 117 % of control; T/C (dose: 105.0 mg/kg/injection, schedule: Q07DX003 (ip), vehicle: saline): 154 % of control; T/C (dose: 150.0 mg/kg/injection, schedule: Q07DX003 (ip), vehicle: saline): 165 % of control

**Q.** How did the T/C [1] turn out when O=C1c2ccccc2C(=O)c2c(NCCNCCNCCO)ccc(NCCNCCNCCO)c21 was run?
**A.** 102 % of control

**Q.** And the T/C [2]?
**A.** 97 % of control

**Q.** What about the T/C (dose: 32.0 mg/kg/injection, schedule: Q01DX009 (ip), vehicle: acid diluted with saline) of the same molecule?
**A.** 107 % of control

**Q.** What about the T/C (dose: 64.0 mg/kg/injection, schedule: Q01DX009 (ip), vehicle: acid diluted with saline) of the same molecule?
**A.** 103 % of control

**Q.** What about the T/C (dose: 128.0 mg/kg/injection, schedule: Q01DX009 (ip), vehicle: acid diluted with saline) of the same molecule?
**A.** 87 % of control

**Q.** With Cc1ncc([N+](=O)[O-])n1CCO as the molecule, how does the T/C (dose: 37.5 mg/kg/injection, schedule: Q04DX003 (ip), vehicle: Klucel (hydroxypropylcellulose) (HPC)) read?
**A.** 114 % of control

**Q.** And the T/C (dose: 75.0 mg/kg/injection, schedule: Q04DX003 (ip), vehicle: Klucel (hydroxypropylcellulose) (HPC))?
**A.** 118 % of control

**Q.** What about the T/C (dose: 150.0 mg/kg/injection, schedule: Q04DX003 (ip), vehicle: Klucel (hydroxypropylcellulose) (HPC)) of the same molecule?
**A.** 106 % of control

**Q.** What about the T/C (dose: 300.0 mg/kg/injection, schedule: Q04DX003 (ip), vehicle: Klucel (hydroxypropylcellulose) (HPC)) of the same molecule?
**A.** 109 % of control

**Q.** And the T/C (dose: 600.0 mg/kg/injection, schedule: Q04DX003 (ip), vehicle: Klucel (hydroxypropylcellulose) (HPC))?
**A.** 108 % of control

**Q.** With O=P1(NCCCl)OCCCN1CCCl (stereo not drawn) as the molecule, how does the T/C (dose: 12.5 mg/kg/injection, schedule: Q04DX003 (ip), vehicle: water) read?
**A.** 106 % of control

**Q.** What about the T/C (dose: 25.0 mg/kg/injection, schedule: Q04DX003 (ip), vehicle: water) of the same molecule?
**A.** 113 % of control

**Q.** And the T/C (dose: 200.0 mg/kg/injection, schedule: Q04DX003 (ip), vehicle: water)?
**A.** 188 % of control

**Q.** With Nc1nncs1 as the molecule, how does the T/C (dose: 50.0 mg/kg/injection, schedule: Q01DX005 (ip), vehicle: saline) read?
**A.** 112 % of control

**Q.** What about the T/C (dose: 50.0 mg/kg/injection, schedule: Q04DX003 (ip), vehicle: saline) of the same molecule?
**A.** 119 % of control

**Q.** And the T/C (dose: 100.0 mg/kg/injection, schedule: Q01DX005 (ip), vehicle: saline)?
**A.** 120 % of control

**Q.** Which results are given for CCNCCNc1ccc(NCCNCC)c2c1C(=O)c1ccccc1C2=O?
**A.** T/C (dose: 2.0 mg/kg/injection, schedule: Q01DX009 (ip), vehicle: acid diluted with saline): 179 % of control; T/C (dose: 4.0 mg/kg/injection, schedule: Q01DX009 (ip), vehicle: acid diluted with saline): 189 % of control; T/C [1]: 163 % of control and 166 % of control; T/C [2]: 169 % of control and 177 % of control

**Q.** How did the T/C (dose: 540.0 micrograms/kg/injection, schedule: Q04DX003 (ip), vehicle: saline) turn out when CCC1(O)CC2CN(CCc3c([nH]c4ccccc34)C(C(=O)OC)(c3cc4c(cc3OC)N(C)C3C(O)(C(=O)NCCSSCCNC(=O)C5(O)C(O)C6(CC)C=CCN7CCC8(c9cc(C%10(C(=O)OC)CC%11CN(CCc%12c%10[nH]c%10ccccc%12%10)CC(O)(CC)C%11)c(OC)cc9N(C)C58)C76)C(O)C5(CC)C=CCN6CCC43C65)C2)C1 (stereo not drawn) was run?
**A.** 114 % of control

**Q.** What about the T/C (dose: 900.0 micrograms/kg/injection, schedule: Q04DX003 (ip), vehicle: saline) of the same molecule?
**A.** 114 % of control

**Q.** What about the T/C (dose: 1500.0 micrograms/kg/injection, schedule: Q04DX003 (ip), vehicle: saline) of the same molecule?
**A.** 96 % of control
